ChEMBL document CHEMBL1201862, “PubChem BioAssay data set” (2004)
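Following 48 hours of exposure in 96-well plates, responses at five concentrations were used to interpolate endpoints linearly. GI50 marks 50% less growth.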 The source made the active and inactive calls. Rule as the data show it: active = GI50 up to about 1.1 µM and inactive = higher.

What was measured:
Assay in all cases: inhibition of tumour cell growth, NCI panel, 48 h
SW-620 = test system: SW-620
ACHN = test system: ACHN
NCI-H226 = test system: NCI-H226
HOP-62 = test system: HOP-62
U-251 = test system: U-251
IGROV-1 = test system: IGROV-1
A549 = test system: A549
M14 = test system: M14
OVCAR-3 = test system: OVCAR-3
UACC-257 = test system: UACC-257
K562 = test system: K562
COLO 205 = test system: COLO 205
UO-31 = test system: UO-31
HCT-116 = test system: HCT-116
SK-OV-3 = test system: SK-OV-3
SNB-75 = test system: SNB-75
A498 = test system: A498

Measured: GI50

COc1ccc(-c2onc(-c3c(C)cc(C)cc3C)c2C2=NCCCN2)cc1
inactive: SW-620 46.2 µM | ACHN 64.1 µM | NCI-H226 36.4 µM | HOP-62 > 100 µM | U-251 22.3 µM | IGROV-1 > 100 µM | A549 65.8 µM | M14 21.1 µM | OVCAR-3 57 µM | UACC-257 21.1 µM | K562 28.8 µM | COLO 205 27.7 µM | UO-31 21.1 µM | HCT-116 28 µM | SK-OV-3 30.6 µM

O=C1[C@@H]2C(c3ccccc3[N+](=O)[O-])=NO[C@@H]2C(=O)N1c1ccc(Cc2ccc(N3C(=O)[C@H]4C(c5ccccc5[N+](=O)[O-])=NO[C@H]4C3=O)cc2)cc1
inactive: SW-620 > 100 µM | ACHN > 100 µM | HOP-62 > 100 µM | SNB-75 > 100 µM | U-251 > 100 µM | IGROV-1 > 100 µM | A498 > 100 µM | M14 > 100 µM | OVCAR-3 > 100 µM | UACC-257 > 100 µM | K562 > 100 µM | COLO 205 > 100 µM | UO-31 > 100 µM | HCT-116 > 100 µM

COc1ccc(CC(=O)NCCc2ccc(OC)c(OC)c2OC)cc1
inactive: SW-620 > 100 µM | ACHN > 100 µM | NCI-H226 > 100 µM | HOP-62 > 100 µM | SNB-75 > 100 µM | U-251 > 100 µM | IGROV-1 > 100 µM | A549 30.1 µM | A498 > 100 µM | M14 > 100 µM | UACC-257 > 100 µM | K562 > 100 µM | UO-31 > 100 µM | HCT-116 > 100 µM | SK-OV-3 > 100 µM

CCOc1ccc(/N=C(/NC(=O)c2ccccc2)SC)cc1
inactive: SW-620 43.4 µM | ACHN > 100 µM | NCI-H226 > 100 µM | HOP-62 > 100 µM | SNB-75 > 100 µM | U-251 > 100 µM | IGROV-1 > 100 µM | A549 > 100 µM | A498 > 100 µM | M14 > 100 µM | OVCAR-3 > 100 µM | UACC-257 > 100 µM | K562 > 100 µM | COLO 205 > 100 µM | UO-31 > 100 µM | HCT-116 > 100 µM | SK-OV-3 > 100 µM

O=C1OC(c2cccc(C(F)(F)F)c2)c2ccc3ccccc3c21 (stereo not drawn)
inactive: SW-620 > 10 µM | ACHN > 10 µM | NCI-H226 > 10 µM | HOP-62 > 10 µM | SNB-75 18.7 µM | U-251 7.59 µM | IGROV-1 > 10 µM | A549 36.8 µM | A498 > 10 µM | M14 > 10 µM | OVCAR-3 > 10 µM | UACC-257 6.32 µM | K562 4.76 µM | COLO 205 > 10 µM | UO-31 9.68 µM | HCT-116 > 10 µM | SK-OV-3 > 10 µM

O=[N+]([O-])c1ccc(/C=N/C2CCCCC2)cc1
inactive: SW-620 > 100 µM | ACHN > 100 µM | NCI-H226 > 100 µM | HOP-62 > 100 µM | SNB-75 > 100 µM | U-251 > 100 µM | IGROV-1 > 100 µM | A549 > 100 µM | A498 > 100 µM | M14 > 100 µM | OVCAR-3 > 100 µM | UACC-257 > 100 µM | K562 > 100 µM | COLO 205 > 100 µM | UO-31 > 100 µM | HCT-116 > 100 µM | SK-OV-3 > 100 µM

O=S1(=O)OCCOS(=O)(=O)C1(Cl)Cl
inactive: SW-620 > 100 µM | NCI-H226 41.1 µM | HOP-62 64.9 µM | SNB-75 > 100 µM | IGROV-1 > 100 µM | A549 > 100 µM | A498 > 100 µM | M14 > 100 µM | OVCAR-3 > 100 µM | UACC-257 > 100 µM | K562 > 100 µM | COLO 205 > 100 µM | UO-31 99.8 µM | HCT-116 > 100 µM | SK-OV-3 > 100 µM

Cc1cc(N(CCC#N)CCC#N)ccc1/C=C1N=C(/C=C/c2ccccc2)OC(=O)N\1
inactive: SW-620 > 100 µM | ACHN > 100 µM | NCI-H226 33 µM | HOP-62 > 100 µM | SNB-75 31.3 µM | U-251 61.5 µM | IGROV-1 > 100 µM | A549 > 100 µM | A498 > 100 µM | M14 > 100 µM | OVCAR-3 81.5 µM | UACC-257 > 100 µM | K562 > 100 µM | COLO 205 > 100 µM | UO-31 > 100 µM | HCT-116 > 100 µM | SK-OV-3 92.3 µM

COc1ccc(-c2nc(N)nc(-c3cc(C)ccc3O)c2Cl)cc1
inactive: SW-620 > 100 µM | ACHN 47.2 µM | NCI-H226 > 100 µM | HOP-62 41.7 µM | SNB-75 25 µM | U-251 39.6 µM | IGROV-1 > 100 µM | A549 64.1 µM | A498 43.7 µM | M14 84.1 µM | OVCAR-3 30.6 µM | UACC-257 > 100 µM | K562 > 100 µM | COLO 205 > 100 µM | UO-31 26.7 µM | HCT-116 39.5 µM | SK-OV-3 29.9 µM

CCO/C=C1\N=C(c2ccccc2Br)OC1=O
inactive: SW-620 > 100 µM | ACHN > 100 µM | NCI-H226 > 100 µM | HOP-62 > 100 µM | SNB-75 > 100 µM | A549 > 100 µM | A498 > 100 µM | M14 > 100 µM | OVCAR-3 > 100 µM | UACC-257 > 100 µM | K562 > 100 µM | COLO 205 > 100 µM | UO-31 > 100 µM | SK-OV-3 > 100 µM

CCCCCCC(/C=N/O)C(C)(O)CCC (stereo not drawn)
inactive: SW-620 > 100 µM | ACHN > 100 µM | NCI-H226 > 100 µM | HOP-62 > 100 µM | SNB-75 > 100 µM | U-251 > 100 µM | IGROV-1 > 100 µM | A549 > 100 µM | A498 > 100 µM | M14 > 100 µM | OVCAR-3 > 100 µM | UACC-257 > 100 µM | K562 84.3 µM | COLO 205 > 100 µM | UO-31 > 100 µM | HCT-116 91.4 µM

CCOc1ccc(NC(=O)CC2SC(Nc3ccc(C)cc3C)=NC2=O)cc1 (stereo not drawn)
inactive: SW-620 > 100 µM | ACHN > 100 µM | NCI-H226 84.3 µM | SNB-75 49.2 µM | U-251 36 µM | IGROV-1 > 100 µM | A549 > 100 µM | A498 > 100 µM | M14 > 100 µM | OVCAR-3 48.8 µM | UACC-257 85.7 µM | K562 52 µM | UO-31 > 100 µM | HCT-116 > 100 µM

COc1cc(/C=N\O[Si](C)(C)C(C)(C)C)ccc1O[Si](C)(C)C(C)(C)C
inactive: SW-620 > 100 µM | ACHN 51.4 µM | HOP-62 > 100 µM | SNB-75 > 100 µM | U-251 30 µM | IGROV-1 > 100 µM | A549 > 100 µM | M14 92.5 µM | OVCAR-3 22.3 µM | UACC-257 > 100 µM | K562 32.5 µM | COLO 205 > 100 µM | UO-31 > 100 µM | HCT-116 32.4 µM | SK-OV-3 > 100 µM

COc1cc(C(C)c2cc3c(cc2OCCCCCOc2cc4c(cc2C(C)c2cc(OC)c(OC)c(OC)c2)OCO4)OCO3)cc(OC)c1OC (stereo not drawn)
inactive: SW-620 > 100 µM | ACHN > 100 µM | NCI-H226 > 100 µM | HOP-62 > 100 µM | SNB-75 59.8 µM | U-251 > 100 µM | IGROV-1 > 100 µM | A549 > 100 µM | A498 > 100 µM | M14 > 100 µM | OVCAR-3 > 100 µM | UACC-257 33.7 µM | K562 > 100 µM | UO-31 > 100 µM | HCT-116 > 100 µM

CCOC(=O)CC1(C(=O)OCC)c2[nH]c3ccccc3c2CCN1Cc1ccccc1 (stereo not drawn)
inactive: SW-620 31.7 µM | ACHN 21.2 µM | NCI-H226 19.1 µM | HOP-62 18.1 µM | SNB-75 20.8 µM | U-251 15 µM | IGROV-1 18.3 µM | A549 19.5 µM | A498 19.3 µM | M14 18.6 µM | OVCAR-3 14.1 µM | UACC-257 17.7 µM | K562 16.9 µM | COLO 205 16.7 µM | UO-31 18.4 µM | HCT-116 17 µM | SK-OV-3 28.5 µM

Cn1ccc2c(C(=O)c3ccccc3)cccc2c1=O
inactive: SW-620 37.9 µM | ACHN 85.9 µM | HOP-62 31 µM | SNB-75 23.4 µM | IGROV-1 > 100 µM | A549 57.4 µM | M14 36.1 µM | OVCAR-3 36.8 µM | UACC-257 > 100 µM | COLO 205 44.7 µM | HCT-116 36.7 µM | SK-OV-3 70.8 µM

CN(C)[C@@H]1C(O)=C(C(=O)NCNCCCC(=O)O)C(=O)[C@@]2(O)C(O)=C3C(=O)c4c(O)cccc4[C@@](C)(O)[C@H]3C[C@@H]12
inactive: SW-620 > 100 µM | ACHN > 100 µM | NCI-H226 > 100 µM | HOP-62 > 100 µM | U-251 > 100 µM | IGROV-1 > 100 µM | A549 > 100 µM | A498 > 100 µM | M14 > 100 µM | OVCAR-3 > 100 µM | UACC-257 > 100 µM | K562 > 100 µM | COLO 205 > 100 µM | UO-31 > 100 µM | HCT-116 > 100 µM | SK-OV-3 > 100 µM
